The record followed here is patent US8604030B2, “Fused piperidine compound and pharmaceutical containing same” (Kowa Company, Ltd., priority 2009, dated 2013).

Experiment [1] concerns Human proerythroblast cell line K562. The experiment in a line: Hemoglobin production in K562 cells (porphyrin ring fluorescence). Type of experiment: cell-based. As to conditions: 72 h, test compound 6 μM, 3 days + 3 days after medium replacement, 3×10^5 cells, 100% = hemoglobin produced in non-stimulated state without compound, read-out: % of Control (6 μM), amount of hemoglobin produced. How it is done:
Human proerythroblast cell line K562 (acquired from ATCC) was inoculated in aliquots of 1×10^5 cells/mL into each of the wells of a 24-well plate using complete medium (RPMI-1640 medium containing 10% fetal bovine serum), followed by the addition of the test compounds at a final concentration of 6 μM and incubating for 3 days in a CO2 incubator (37° C., 5% CO2). Culturing was continued for an additional 3 days after replacing the medium. The cells were then collected and counted followed by unifying to a cell count of 3×10^5 cells and determining the amount of hemoglobin produced in the cells by measuring the fluorescence of the porphyrin ring. Namely, the cells collected by centrifugation were suspended in 500 μL of 2 M oxalic acid, and boiled for 30 minutes and allowed to cool, followed by measuring fluorescence intensity with a fluorescent microplate reader (Spectra MAX Gemini EM, MDC Japan, Inc.) ([…]). The amount of hemoglobin induced to be produced by each compound was determined based on a value of 100% for the amount of hemoglobin produced in a non-stimulated state in the absence of addition of a compound (% of control).

The test system of experiment [2] is Human hepatocellular carcinoma cell line HepG2. The experiment is described as follows: EPO production in HepG2 culture supernatant (ELISA), 48 hours at 4% oxygen. It counts as cell-based. As to conditions: oxygen concentration 4%, 100% = EPO produced in non-stimulated state without compound; for activity at 3 µM: test compound 3 μM, read-out: % of Control (3 μM), produced amount of EPO; for activity at 10 µM: test compound 10 μM, read-out: % of Control (10 μM), produced amount of EPO. How it is done:
Human hepatocellular carcinoma cell line HepG2 was inoculated in aliquots of 5×10^4 cells each into each of the wells of a 48-well plate using minimum essential medium (MEM, Sigma) containing 10% fetal bovine serum. On the following day, the medium was replaced with Dulbecco's Modified Eagle Medium (DMEM, Sigma) not containing phenol red but containing 10% fetal bovine serum followed by the addition of a test compound dissolved in DMSO to a final concentration of 3 μM or 10 and bringing to a final media volume of 400 μl per well. After incubating for 48 hours in a CO2 incubator having an oxygen concentration of 4%, the culture supernatant was recovered. The concentration of EPO in the culture supernatant was measured immediately using an ELISA kit (Roche Diagnostics). The procedure used complied with that described in the instructions.
The produced amount of EPO derived from each compound was determined based on a value of 100% for the amount of EPO produced in a non-stimulated state in the absence of addition of a compound (% of control).

Take `CC(=O)N1c2ncccc2[C@H](Nc2ccc(Cl)cc2)C[C@@H]1C` (relative stereo) [Compound 1, cis-1-acetyl-4-[(4-chlorophenyl)amino]-2-methyl-3,4-dihydro-2H-[1,8]-naphthyridine]: the activity at 6 µM in experiment [1] was 197%. Moreover, in experiment [2], the activity at 3 µM was 416%.
Regarding `CC(=O)N1c2ccncc2[C@H](Nc2ccc(Cl)cc2)C[C@@H]1C` (relative stereo) [Compound 2, cis-1-acetyl-4-[(4-chlorophenyl)amino]-2-methyl-3,4-dihydro-2H-[1,6]-naphthyridine], in experiment [1], the activity at 6 µM came out at 249%. The activity at 3 µM in experiment [2] worked out at 392%.
Consider `CC(=O)N1c2cccnc2[C@H](Nc2ccc(Cl)cc2)C[C@@H]1C` (relative stereo) [Compound 3, cis-1-acetyl-4-[(4-chlorophenyl)amino]-2-methyl-3,4-dihydro-2H-[1,5]-naphthyridine], for which the activity at 6 µM in experiment [1] is 105%. Also, the activity at 3 µM in experiment [2] is 153%.
Turning to `CC(=O)N1c2c(ccc3ccccc23)[C@H](Nc2ccc(Cl)cc2)C[C@@H]1C` (relative stereo) [Compound 5, cis-1-acetyl-4-[(4-chlorophenyl)amino]-2-methyl-1,2,3,4-tetrahydro-benzo[h]quinoline], the activity at 10 µM in experiment [2] amounted to 183%.
Turning to `CC(=O)N1c2ccc3[nH]ccc3c2[C@H](Nc2ccc(Cl)cc2)C[C@@H]1C` (relative stereo) [Compound 7, cis-6-acetyl-9-(4-chlorophenylamino)-7-methyl-6,7,8,9-tetrahydro-3H-pyrrolo[3,2-f]quinoline], the activity at 6 µM in experiment [1] came out at 436%. The activity at 10 µM in experiment [2] worked out at 137%.
As to `CC(=O)N1c2ccc3oc(=O)ccc3c2[C@H](Nc2ccc(Cl)cc2)C[C@@H]1C` (relative stereo) [Compound 9, cis-7-acetyl-10-(4-chlorophenylamino)-8-methyl-7,8,9,10-tetrahydro-3H-pyrano[3,2-f]-quinolin-3-one], the activity at 6 µM in experiment [1] stood at 166%. In addition, the activity at 10 µM in experiment [2] was 116%.
Consider `CC(=O)N1c2cc3c(cc2[C@H](Nc2ccc(Cl)cc2)C[C@@H]1C)OCO3` (relative stereo) [Compound 10, cis-1-[8-(4-chlorophenylamino)-6-methyl-7,8-dihydro-[1,3]dioxolo[4,5-g]quinolin-5(6H)-yl]ethanone], for which the activity at 6 µM in experiment [1] worked out at 520%. For the same compound, the activity at 10 µM in experiment [2] came out at 191%.
Consider `CC(=O)N1c2ccsc2C(Nc2ccc(Cl)cc2)CC1C` (centres unmarked) [Compound 4, 1-(7-(4-chlorophenylamino)-5-methyl-6,7-dihydrothieno[3,2-b]pyridine-4(5H)-yl)ethanone], for which the activity at 6 µM in experiment [1] came out at 135%. The activity at 3 µM in experiment [2] came to 137%.
Consider `CC(=O)N1c2ccc3[nH]cnc3c2C(Nc2ccc(Cl)cc2)CC1C` (stereo not drawn) [Compound 8, Cis-1-acetyl-9-[(4-chlorophenyl)amino]-7-methyl-6,7,8,9-tetrahydro-1H-imiazo[4,5-f]quinoline], for which the activity at 6 µM in experiment [1] was determined as 185%. Moreover, the activity at 10 µM in experiment [2] stood at 104%.
As to `CC(=O)N1c2cc3c(cc2C(Nc2ccc(Cl)cc2)CC1C)OCCO3` (centres unmarked) [Compound 11, 6-acetyl-9-[(4-chlorophenyl)amino]-7-methyl-2,3,6,7,8,9-hexahydro-[1,4]dioxano[2,3-g]quinoline], in experiment [1], the activity at 6 µM is 302%. Further, the activity at 10 µM in experiment [2] is 190%.
Consider `CC(=O)N1c2cc3c(cc2C(Nc2ccc(Cl)cc2)CC1C)OCC(=O)N3` (stereo not drawn) [Compound 12, cis-6-acetyl-9-(4-chlorophenylamino)-7-methyl-6,7,8,9-tetrahydro-2H-[1,4]oxazino[2,3-g]quinolin-3-(4H)-one], for which, in experiment [2], the activity at 10 µM turned out to be 103%.
